Non-standard residues stand in square brackets, D forms with d. Residues, ends and D or L forms follow the SMILES beside them. *: point of attachment. Sta = CC(C)C[C@H](N)[C@@H](O)CC(=O)O; Isovaleryl = CC(C)CC(=O)*
How the values were obtained:
[1] = system: peptidases in conditioned media from pancreatic ductal adenocarcinoma cells; format: biochemical, mouse; conditions: media pre-treated 30 minutes at room temperature with 1 μM E64, 1 μM 1,10-Phenanthroline or 400 nM pepstatin; pH 5.2; within 1200 minutes
Granzyme B = conditions: fluorescent substrate containing the sequence; previous studies; cited from earlier work

Row | Molecule | effect on cleavage sites / cleavage signature of conditioned media [1] | catalytic efficiency (kcat/KM) (Granzyme B)
1 | c1cnc2c(c1)ccc1cccnc12 [1,10-phenanthroline] | majority of cleavage sites remained unchanged | 
2 | CC(C)C[C@H](NC(=O)[C@H]1O[C@@H]1C(=O)O)C(=O)NCCCCN=C(N)N [E-64] | majority of cleavage sites remained unchanged | 
3 | CC(C)CC(=O)N[C@H](C(=O)N[C@H](C(=O)N[C@@H](CC(C)C)[C@@H](O)CC(=O)N[C@@H](C)C(=O)N[C@@H](CC(C)C)[C@@H](O)CC(=O)O)C(C)C)C(C)C [pepstatin] (Isovaleryl-VV[Sta]A[Sta]-OH) | completely altered the cleavage signature | 
4 | VVAD↓SSMES |  | 116,000 M^−1 s^−1
